Test results published in ChEMBL document CHEMBL5046300, “Potent Bactericidal Antimycobacterials Targeting the Chaperone ClpC1 Based on the Depsipeptide Natural Products Ecumicin and Ohmyungsamycin A” (2022).
Converted amounts (≈) assume the structure as drawn. The source made the active and inactive calls. The calls are words filed in the database; no cut-off is given here. *1 amine or outer side, *2 acyl side, *3 side chain or, on linkers, in order; H or OH if unused. Where a SMILES comes first, the peptide text is derived from it. Bridges are numbered along the chain shown (N, C = ends). [ ]: non-standard residue; d: D form. The star is where a group is joined. Phe(3R-OH) = O=C([C@@H](N[*:1])[C@H](O[*:3])c1ccccc1)[*:2]; NMeTrp(4-OMe) = CN[C@@H](Cc1c[nH]c2cccc(OC)c12)C(=O)O; NMeW = CN[C@@H](Cc1c[nH]c2ccccc12)C(=O)O; NMeaIle = CC[C@@H](C)[C@H](NC)C(=O)O; NMe2Val = CC(C)[C@@H](C(=O)*)N(C)C; NMeF = CN[C@@H](Cc1ccccc1)C(=O)O; NMeT = CN[C@H](C(=O)O)[C@@H](C)O; NMeL = CN[C@@H](CC(C)C)C(=O)O; NMeV = CN[C@H](C(=O)O)C(C)C; NMeA = CN[C@@H](C)C(=O)O

Key:
[1] = system: Mycobacterium tuberculosis; assay: Antimycobacterial activity against Mycobacterium tuberculosis mc2 6230 measured after 7 days; assay type: functional; settings: mc2 6230, 168 h, time 7 day
[2] = system: Mycobacterium tuberculosis; assay: Antimycobacterial activity against Mycobacterium tuberculosis H37Rv infected in human THP-1 cells assessed as log reduction in bacterial growth at 10 uM incubated for 3 to 4 weeks by intracellular killing assay; assay type: functional; settings: time 3-4 weeks
[3] = system: Mycolicibacterium smegmatis; assay: Enhancement of Mycobacterium smegmatis ClpC1 ATPase activity assessed as inhibition of ClpC1/ClpP1P2 complex-mediated beta-casein proteolysis incubated for 30 to 60 mins by in vitro degradation assay; settings: filed as activator, time 30-60 min
[4] = system: Providencia alcalifaciens; assay: Antibacterial activity against Providencia alcalifaciens ATCC 9886 assessed as bacterial growth inhibition incubated for 18 to 20 hrs by broth microdilution method; assay type: functional; settings: time 18-20 hrs
[5] = system: Yersinia pseudotuberculosis; assay: Antibacterial activity against Yersinia pseudotuberculosis ATCC 6904 assessed as bacterial growth inhibition incubated for 18 to 20 hrs by broth microdilution method; assay type: functional; settings: time 18-20 hrs
[6] = system: Mycobacterium tuberculosis; assay: Bactericidal activity against Mycobacterium tuberculosis mc2 6230 at 10 time MIC monitored for 28 days under hypoxic non-replicating culture condition by time kill assay; assay type: functional, organism-based; settings: time 28.0 day
[7] = system: Enterococcus faecium; assay: Antibacterial activity against Enterococcus faecium ATCC 6569 assessed as bacterial growth inhibition incubated for 18 to 20 hrs by broth microdilution method; assay type: functional; settings: time 18-20 hrs
[8] = system: Acinetobacter baumannii; assay: Antibacterial activity against Acinetobacter baumannii ATCC 19606 assessed as bacterial growth inhibition incubated for 18 to 20 hrs by broth microdilution method; assay type: functional; settings: time 18-20 hrs
[9] = system: Pseudomonas aeruginosa; assay: Antibacterial activity against Pseudomonas aeruginosa ATCC 27853 assessed as bacterial growth inhibition incubated for 18 to 20 hrs by broth microdilution method; assay type: functional; settings: time 18-20 hrs
[10] = system: Streptococcus pneumoniae; assay: Antibacterial activity against Streptococcus pneumoniae ATCC 49619 assessed as bacterial growth inhibition incubated for 18 to 20 hrs by broth microdilution method; assay type: functional; settings: time 18-20 hrs
[11] = system: Mycobacterium marinum; assay: Antimycobacterial activity against mid-exponential phase Mycobacterium marinum M strain incubated for 2 days by fluorescence assay; assay type: functional; settings: 48 h, time 2 day
[12] = system: Staphylococcus aureus; assay: Antibacterial activity against methicillin-resistant Staphylococcus aureus BAA-44 assessed as bacterial growth inhibition incubated for 18 to 20 hrs by broth microdilution method; assay type: functional; settings: time 18-20 hrs
[13] = system: Mycobacterium marinum; assay: Antimycobacterial activity against Mycobacterium marinum infected in zebrafish assessed as reduction in bacterial burden at 10 uM after 6 days post infection; assay type: functional; set-up: scale not given: the % may be the effect or the level left; settings: time 6 day
[14] = system: Staphylococcus aureus; assay: Antibacterial activity against methicillin-sensitive Staphylococcus aureus ATCC 29213 assessed as bacterial growth inhibition incubated for 18 to 20 hrs by broth microdilution method; assay type: functional; settings: time 18-20 hrs
[15] = system: Brucella anthropi; assay: Antibacterial activity against Ochrobactrum anthropi ATCC 49687 assessed as bacterial growth inhibition incubated for 18 to 20 hrs by broth microdilution method; assay type: functional; settings: time 18-20 hrs
[16] = system: Mycobacterium tuberculosis; assay: Synergistic antimycobacterial activity against Mycobacterium tuberculosis mc2 6230 assessed as fractional inhibitory concentration incubated for 7 days in presence of clofazimine by checkerboard assay; assay type: functional; settings: time 7 day
[17] = system: Mycobacterium marinum; assay: Antimycobacterial activity against Mycobacterium marinum infected in zebrafish assessed as reduction in bacterial burden at 10 uM in presence of rifampicin after 6 days post infection; assay type: functional; set-up: scale not given: the % may be the effect or the level left; settings: time 6 day
[18] = system: Mycobacterium tuberculosis; assay: Synergistic antimycobacterial activity against Mycobacterium tuberculosis mc2 6230 assessed as fractional inhibitory concentration incubated for 7 days in presence of bedaquiline by checkerboard assay; assay type: functional; settings: time 7 day
[19] = system: Vibrio cholerae; assay: Antibacterial activity against Vibrio cholerae A1552 El Tor assessed as bacterial growth inhibition incubated for 18 to 20 hrs by broth microdilution method; assay type: functional; settings: time 18-20 hrs
[20] = system: Bacillus subtilis; assay: Antibacterial activity against Bacillus subtilis ATCC 6051 assessed as bacterial growth inhibition incubated for 18 to 20 hrs by broth microdilution method; assay type: functional; settings: time 18-20 hrs
[21] = system: Salmonella enterica; assay: Antibacterial activity against Salmonella enterica ATCC 13311 assessed as bacterial growth inhibition incubated for 18 to 20 hrs by broth microdilution method; assay type: functional; settings: time 18-20 hrs
[22] = system: Mycobacterium tuberculosis; assay: Antimycobacterial activity against Mycobacterium tuberculosis mc2 6230 measured after 7 days by Time kill assay; assay type: functional, organism-based; settings: time 7.0 day
[23] = system: Klebsiella pneumoniae; assay: Antibacterial activity against Klebsiella pneumoniae ATCC 700603 assessed as bacterial growth inhibition incubated for 18 to 20 hrs by broth microdilution method; assay type: functional; settings: time 18-20 hrs
[24] = system: Mycobacterium tuberculosis; assay: Synergistic antimycobacterial activity against Mycobacterium tuberculosis mc2 6230 assessed as fractional inhibitory concentration incubated for 7 days in presence of isoniazid by checkerboard assay; assay type: functional; settings: time 7 day
[25] = system: Mycobacterium marinum; assay: Antimycobacterial activity against tdTomato fluorescent Mycobacterium marinum infected in zebrafish assessed as reduction in bacterial burden at 25 uM pre-infected with bacteria for 4 to 5 days followed by compound addition and measured after day 6 post infection by microscopic analysis relative to control; assay type: functional; set-up: scale not given: the % may be the effect or the level left; settings: time 4-5 day
[26] = system: Mycobacterium tuberculosis; assay: Synergistic antimycobacterial activity against Mycobacterium tuberculosis mc2 6230 assessed as fractional inhibitory concentration incubated for 7 days in presence of rifampicin by checkerboard assay; assay type: functional; settings: time 7 day
[27] = system: Enterococcus faecalis; assay: Antibacterial activity against Enterococcus faecalis ATCC 29212 assessed as bacterial growth inhibition incubated for 18 to 20 hrs by broth microdilution method; assay type: functional; settings: time 18-20 hrs
[28] = system: Mycobacterium tuberculosis; assay: Synergistic antimycobacterial activity against Mycobacterium tuberculosis mc2 6230 assessed as fractional inhibitory concentration incubated for 7 days in presence of ethambutol by checkerboard assay; assay type: functional; settings: time 7 day
[29] = system: Klebsiella aerogenes; assay: Antibacterial activity against Klebsiella aerogenes ATCC 35029 assessed as bacterial growth inhibition incubated for 18 to 20 hrs by broth microdilution method; assay type: functional; settings: time 18-20 hrs
[30] = system: Mycobacterium tuberculosis; assay: Synergistic antimycobacterial activity against Mycobacterium tuberculosis mc2 6230 assessed as fractional inhibitory concentration incubated for 7 days in presence of pyrazinamide by checkerboard assay; assay type: functional; settings: time 7 day
[31] = system: Mycobacterium tuberculosis; assay: Antibacterial activity against Mycobacterium tuberculosis mc2 6230 assessed as reduction in viable cells at 10 times MIC measured for 42 days in solid media by time kill assay; assay type: functional; settings: time 42 day
[32] = system: Listeria ivanovii; assay: Antibacterial activity against Listeria ivanovii BAA-139 assessed as bacterial growth inhibition incubated for 18 to 20 hrs by broth microdilution method; assay type: functional; settings: time 18-20 hrs
[33] = system: Mycolicibacterium smegmatis; assay: Enhancement of hexameric Mycobacterium smegmatis ClpC1 ATPase activity assessed as fold increase at 100 uM incubated for 30 mins by ATP/NADH spectrophotometric analysis; settings: filed as activator
[34] = system: Escherichia coli; assay: Antibacterial activity against Escherichia coli K-12 MG1655 assessed as bacterial growth inhibition incubated for 18 to 20 hrs by broth microdilution method; assay type: functional; settings: time 18-20 hrs
[35] = system: Staphylococcus epidermidis; assay: Antibacterial activity against Staphylococcus epidermidis ATCC 14990 assessed as bacterial growth inhibition incubated for 18 to 20 hrs by broth microdilution method; assay type: functional; settings: time 18-20 hrs
[36] = system: Shigella sonnei; assay: Antibacterial activity against Shigella sonnei ATCC 25931 assessed as bacterial growth inhibition incubated for 18 to 20 hrs by broth microdilution method; assay type: functional; settings: time 18-20 hrs

CC[C@@H](C)[C@@H](C(=O)N[C@@H]1C(=O)N(C)[C@@H]([C@@H](C)O)C(=O)N[C@@H](C(C)C)C(=O)N(C)[C@@H](CC(C)C)C(=O)N[C@@H](C(C)C)C(=O)N(C)[C@@H](C(C)C)C(=O)N(C)[C@@H](Cc2c[nH]c3cccc(OC)c23)C(=O)N[C@@H](C(C)C)C(=O)N[C@@H]([C@H](O)c2ccccc2)C(=O)N[C@@H](C(C)C)C(=O)O[C@@H]1C)N(C)C(=O)[C@@H](NC(=O)[C@H](C(C)C)N(C)C)C(C)C (NMe2Val-V[NMeaIle]T[NMeT]V[NMeL]V[NMeV][NMeTrp(4-OMe)]V[Phe(3R-OH)]V; ester 3-C)
MIC [1]: 1 µM (≈ 1.6 µg/mL) | Activity [2]: 1 log10CFU/ml

CN[C@H](C(=O)N[C@H](C(=O)N[C@@H]1C(=O)N(C)[C@@H]([C@@H](C)O)C(=O)N[C@@H](C(C)C)C(=O)N(C)[C@@H](CC(C)C)C(=O)N[C@@H](C(C)C)C(=O)N(C)[C@@H](Cc2ccccc2)C(=O)N(C)[C@@H](Cc2c[nH]c3ccccc23)C(=O)N[C@@H](C(C)C)C(=O)N[C@@H](Cc2ccccc2)C(=O)N[C@@H](C(C)C)C(=O)O[C@@H]1C)C(C)C)C(C)C (H-[NMeV]VT[NMeT]V[NMeL]V[NMeF][NMeW]VFV; ester 3-C)
inhibition [3]: Active | MIC [1]: 0.125 µM (≈ 0.183 µg/mL)

CN[C@H](C(=O)N[C@H](C(=O)N[C@@H]1C(=O)N(C)[C@@H]([C@@H](C)O)C(=O)N[C@@H](C(C)C)C(=O)N(C)[C@@H](CC(C)C)C(=O)N[C@@H](C(C)C)C(=O)N(C)[C@@H](C)C(=O)N(C)[C@@H](Cc2c[nH]c3ccccc23)C(=O)N[C@@H](C(C)C)C(=O)N[C@@H](Cc2ccccc2)C(=O)N[C@@H](C(C)C)C(=O)O[C@@H]1C)C(C)C)C(C)C (H-[NMeV]VT[NMeT]V[NMeL]V[NMeA][NMeW]VFV; ester 3-C)
MIC [4]: > 128 µM | MIC [5]: > 128 µM | Activity [6]: Active | MIC [7]: > 128 µM | MIC [8]: > 128 µM | MIC [9]: > 128 µM | MIC [10]: > 128 µM | MIC50 [11]: 1.44 µM (≈ 1.99 µg/mL) | MIC [12]: > 128 µM | Activity [13]: 50% | MIC [14]: > 128 µM | MIC [15]: > 128 µM | FIC [16]: 2 | Activity [17]: 83% | FIC [18]: 3 | MIC [19]: > 128 µM | MIC [20]: 128 µM (≈ 177 µg/mL) | MIC [21]: > 128 µM | Activity [22]: Active | MIC [23]: > 128 µM | FIC [24]: 2 | Activity [25]: 76% | FIC [26]: 0.375 | MIC [27]: > 128 µM | FIC [28]: 0.75 | MIC [29]: 128 µM (≈ 177 µg/mL) | Activity [3]: Active | FIC [30]: 2 | MIC [1]: 0.5 µM (≈ 0.692 µg/mL) | Activity [31]: 6 log10CFU/ml | MIC [32]: > 128 µM | fold change (FC) [33]: 3 | MIC [34]: > 128 µM | MIC [35]: > 128 µM | MIC [36]: > 128 µM

CO[C@H]1/C=C/O[C@@]2(C)Oc3c(C)c(O)c4c(O)c(c(/C=N/N5CCN(C)CC5)c(O)c4c3C2=O)NC(=O)/C(C)=C\C=C\[C@H](C)[C@H](O)[C@@H](C)[C@@H](O)[C@@H](C)[C@H](OC(C)=O)[C@@H]1C [RIFAMPIN]
MIC [4]: 8 µM (≈ 6.58 µg/mL) | MIC [5]: 11 µM (≈ 9.05 µg/mL) | MIC [7]: 21 µM (≈ 17.3 µg/mL) | MIC [8]: 1 µM (≈ 0.823 µg/mL) | MIC [9]: 53 µM (≈ 43.6 µg/mL) | MIC [10]: 0.11 µM (≈ 0.0905 µg/mL) | MIC [12]: 0.01 µM (≈ 0.00823 µg/mL) | Activity [13]: 27% | MIC [14]: 0.02 µM (≈ 0.0165 µg/mL) | MIC [15]: 4 µM (≈ 3.29 µg/mL) | MIC [19]: 128 µM (≈ 105 µg/mL) | MIC [20]: 4 µM (≈ 3.29 µg/mL) | MIC [21]: 2 µM (≈ 1.65 µg/mL) | MIC [23]: 16 µM (≈ 13.2 µg/mL) | MIC [27]: 1 µM (≈ 0.823 µg/mL) | MIC [29]: 8 µM (≈ 6.58 µg/mL) | Activity [2]: 1 log10CFU/ml | MIC [32]: 0.19 µM (≈ 0.156 µg/mL) | MIC [34]: 4 µM (≈ 3.29 µg/mL) | MIC [35]: 0.02 µM (≈ 0.0165 µg/mL) | MIC [36]: 1.7 µM (≈ 1.4 µg/mL)
